# According to ChEMBL document CHEMBL4330144, “A mitochondria-targeted organic arsenical accelerates mitochondrial metabolic disorder and function injury” (Bioorg Med Chem, 2019):
# Tests used:
# Rattus norvegicus = species on record: Rattus norvegicus; experiment: Induction of mitochondrial membrane potential loss in isolated Wistar rat mitochondria assessed as decline phase rate constant at 25 uM using pyruvate as substrate up to 3 hrs by microcalorimetry (reference value: -24.13 to -20.47 10^-3/min); format: functional
# NB-4 = experiment: Induction of apoptosis in human NB4 cells assessed as live cells after 24 hrs in presence of Nec-1 by Annexin V-FITC/propidium iodide staining based flow cytometry (reference value: 92%); format: functional
compound,measurement,setting,value
O=C(CC[P+](c1ccccc1)(c1ccccc1)c1ccccc1)Nc1ccc([As]2SCCCS2)cc1.[Cl-],K,Rattus norvegicus,-14.1 ×10⁻³ /min
same,Activity,NB-4,71.2%
